The values below come from patent publication US8648094B2, “IAP BIR domain binding compounds” (Pharmascience, Inc., priority 2006, dated 2014).

pEC50: −log10 of the molar value.

The test relates to SKOV-3 cells. The test can be described thus: Survival MTT assay. The test is classed as cell-based. Particulars: Homo sapiens, SK-OV-3, 72 hours. On the procedure:
One day prior the treatment with compound, 2000 to 4000 cells per well were plated in a tissue culture treated 96 well format dish with 100 uL of media and incubated at 37° C., 5% CO2. On the day of compound treatment, compounds were diluted with cell culture media to a working stock concentration of 2×. 100 ul of diluted compound were then added to each well. The treated plate was incubated for 72 hours at 37° C., 5% CO2. Upon incubation, the cell viability was assessed as follows; 20 uL of MTT reagent (5 mg/mL) were added per well to cell plate. The plate was incubated for 2 hrs at 37° C. in presence of 5% CO2. The supernatant was then removed from the plate and 100 uL of isopropanol was added. The absorbance was measured in a TECAN spectrophotometer at 570 nm. The percentage of viability was expressed in percentage of the signal obtained with non treated cells.
In the case of `CN[C@@H](C)C(=O)N[C@H](C(=O)N1CCC[C@H]1CN(Cc1cccc(-c2ccccc2)c1)C(=O)CCCCCCCCC(=O)N(Cc1cccc(-c2ccccc2)c1)C[C@@H]1CCCN1C(=O)[C@@H](NC(=O)[C@H](C)NC)C(C)(C)C)C(C)(C)C` [Compound 75], the pEC50 is 7.60 to 8.00.

`CN[C@@H](C)C(=O)N[C@H](C(=O)N1CCC[C@H]1CN(CCc1ccccc1)C(=O)CCC(=O)N(CCc1ccccc1)C[C@@H]1CCCN1C(=O)[C@@H](NC(=O)[C@H](C)NC)C(C)(C)C)C(C)(C)C` [Compound 6] showed a pEC50 of less than 7.60.

`CN[C@@H](C)C(=O)N[C@H](C(=O)N1CCC[C@H]1CN(CCc1ccccc1)C(=O)[C@@H](C)NC(=O)c1ccc(C(=O)N[C@H](C)C(=O)N(CCc2ccccc2)C[C@@H]2CCCN2C(=O)[C@@H](NC(=O)[C@H](C)NC)C(C)(C)C)cc1)C(C)(C)C` [Compound 59] gave a pEC50 of more than 8.00.

On to `CN[C@@H](C)C(=O)N[C@H](C(=O)N1CCC[C@H]1CN(CCc1ccccc1)C(=O)CNC(=O)c1ccc2ccc(C(=O)NCC(=O)N(CCc3ccccc3)C[C@@H]3CCCN3C(=O)[C@@H](NC(=O)[C@H](C)NC)C(C)(C)C)cc2c1)C(C)(C)C` [Compound 85], for which the pEC50 is more than 8.00.

With `CN[C@@H](C)C(=O)N[C@H](C(=O)N1CCC[C@H]1CN(CCc1ccccc1)S(=O)(=O)c1ccc2ccc(S(=O)(=O)N(CCc3ccccc3)C[C@@H]3CCCN3C(=O)[C@@H](NC(=O)[C@H](C)NC)C(C)(C)C)cc2c1)C(C)(C)C` [Compound 90], the pEC50 is 7.60 to 8.00.

In the case of `CN[C@@H](C)C(=O)N[C@H](C(=O)N1CCC[C@H]1CN(CCc1ccccc1)C(=O)c1ccc(-c2ccc(C(=O)N(CCc3ccccc3)C[C@@H]3CCCN3C(=O)[C@@H](NC(=O)[C@H](C)NC)C(C)(C)C)cc2)cc1)C(C)(C)C` [Compound 4], the pEC50 is more than 8.00.

Turning to `CN[C@@H](C)C(=O)N[C@H](C(=O)N1CCC[C@H]1CN(CCc1ccccc1)C(=O)c1ccc(Oc2ccc(C(=O)N(CCc3ccccc3)C[C@@H]3CCCN3C(=O)[C@@H](NC(=O)[C@H](C)NC)C(C)(C)C)cc2)cc1)C(C)(C)C` [Compound 27], the negative-log EC50 (pEC50) is less than 7.60.

With `CN[C@@H](C)C(=O)N[C@H](C(=O)N1CCC[C@H]1C(=O)N(CCc1ccccc1)Cc1ccc(CN(CCc2ccccc2)C(=O)[C@@H]2CCCN2C(=O)[C@@H](NC(=O)[C@H](C)NC)C(C)(C)C)cc1)C(C)(C)C` [Compound 79], the negative-log EC50 (pEC50) was 7.60 to 8.00.

As to `CN[C@@H](C)C(=O)N[C@H](C(=O)N1CCC[C@H]1CN(CCc1ccccc1)C(=O)CCCCCCCCCCC(=O)N(CCc1ccccc1)C[C@@H]1CCCN1C(=O)[C@@H](NC(=O)[C@H](C)NC)C(C)(C)C)C(C)(C)C` [Compound 18], the pEC50 is 7.60 to 8.00.

Turning to `CN[C@@H](C)C(=O)N[C@H](C(=O)N1CCC[C@H]1CN(CCc1ccccc1)C(=O)CCCCCCCCC(=O)N(CCc1ccccc1)C[C@@H]1CCCN1C(=O)[C@@H](NC(=O)[C@H](C)NC)C(C)(C)C)C(C)(C)C` [Compound 2], the pEC50 was more than 8.00.

`CN[C@@H](C)C(=O)N[C@H](C(=O)N1CCC[C@H]1CN(CCc1ccc(F)cc1)C(=O)CCC(=O)N(CCc1ccc(F)cc1)C[C@@H]1CCCN1C(=O)[C@@H](NC(=O)[C@H](C)NC)C(C)(C)C)C(C)(C)C` [Compound 48] gave a pEC50 of 7.60 to 8.00.

In turn, `CN[C@@H](C)C(=O)N[C@H](C(=O)N1CCC[C@H]1CN(C[C@@H](C)c1ccccc1)C(=O)CCCCCCCCC(=O)N(C[C@@H]1CCCN1C(=O)[C@@H](NC(=O)[C@H](C)NC)C(C)(C)C)C[C@@H](C)c1ccccc1)C(C)(C)C` [Compound 22] showed a pEC50 of less than 7.60.

In the case of `CN[C@@H](C)C(=O)N[C@H](C(=O)N1CCC[C@H]1CN(CCc1ccccc1)C(=O)CNC(=O)CCCCC(=O)NCC(=O)N(CCc1ccccc1)C[C@@H]1CCCN1C(=O)[C@@H](NC(=O)[C@H](C)NC)C(C)(C)C)C(C)(C)C` [Compound 50], the pEC50 was 7.60 to 8.00.

Turning to `CN[C@@H](C)C(=O)N[C@H](C(=O)N1CCC[C@H]1CN(CCc1ccc(F)cc1)C(=O)CNC(=O)C(=O)NCC(=O)N(CCc1ccc(F)cc1)C[C@@H]1CCCN1C(=O)[C@@H](NC(=O)[C@H](C)NC)C(C)(C)C)C(C)(C)C` [Compound 73], the pEC50 is more than 8.00.

Molecule `CN[C@@H](C)C(=O)N[C@H](C(=O)N1CCC[C@H]1CN(CCc1ccccc1)S(=O)(=O)c1cccc(S(=O)(=O)N(CCc2ccccc2)C[C@@H]2CCCN2C(=O)[C@@H](NC(=O)[C@H](C)NC)C(C)(C)C)c1)C(C)(C)C` [Compound 36] showed a negative logarithm of the EC50 (pEC50) of more than 8.00.

Consider `CN[C@@H](C)C(=O)N[C@H](C(=O)N1CCC[C@H]1CN(CCc1ccccc1)S(=O)(=O)c1ccc(-c2ccc(S(=O)(=O)N(CCc3ccccc3)C[C@@H]3CCCN3C(=O)[C@@H](NC(=O)[C@H](C)NC)C(C)(C)C)cc2)cc1)C(C)(C)C` [Compound 13], for which the pEC50 is 7.60 to 8.00.

`CN[C@@H](C)C(=O)N[C@H](C(=O)N1CCC[C@H]1CN(CCc1ccc(F)cc1)C(=O)CNC(=O)c1ccc(C(=O)NCC(=O)N(CCc2ccc(F)cc2)C[C@@H]2CCCN2C(=O)[C@@H](NC(=O)[C@H](C)NC)C(C)(C)C)cc1)C(C)(C)C` [Compound 71]: the pEC50 was more than 8.00.

For `CN[C@@H](C)C(=O)N[C@H](C(=O)N1CCC[C@H]1CN(CCc1ccc(F)cc1)C(=O)CNC(=O)c1ccc(-c2ccc(C(=O)NCC(=O)N(CCc3ccc(F)cc3)C[C@@H]3CCCN3C(=O)[C@@H](NC(=O)[C@H](C)NC)C(C)(C)C)cc2)cc1)C(C)(C)C` [Compound 76], the pEC50 was more than 8.00.

Molecule `CN[C@@H](C)C(=O)N[C@H](C(=O)N1CCC[C@H]1CN(CCc1ccc(F)cc1)C(=O)CNC(=O)c1cccc(C(=O)NCC(=O)N(CCc2ccc(F)cc2)C[C@@H]2CCCN2C(=O)[C@@H](NC(=O)[C@H](C)NC)C(C)(C)C)c1)C(C)(C)C` [Compound 83] gave a pEC50 of more than 8.00.

`CN[C@@H](C)C(=O)N[C@H](C(=O)N1CCC[C@H]1CN(CCc1ccccc1)C(=O)CNC(=O)c1ccc2cc(C(=O)NCC(=O)N(CCc3ccccc3)C[C@@H]3CCCN3C(=O)[C@@H](NC(=O)[C@H](C)NC)C(C)(C)C)ccc2c1)C(C)(C)C` [Compound 63]: the negative-log EC50 (pEC50) is more than 8.00.

`CN[C@@H](C)C(=O)N[C@H](C(=O)N1CCC[C@H]1CN(CCc1ccccc1)C(=O)[C@H]1CCCN1C(=O)c1ccc(C(=O)N2CCC[C@@H]2C(=O)N(CCc2ccccc2)C[C@@H]2CCCN2C(=O)[C@@H](NC(=O)[C@H](C)NC)C(C)(C)C)cc1)C(C)(C)C` [Compound 81] gave a pEC50 of less than 7.60.

In the case of `CN[C@@H](C)C(=O)N[C@@H](CC1CCCCC1)C(=O)N1CCC[C@H]1CN(CCc1ccccc1)C(=O)CCCCCCCCC(=O)N(CCc1ccccc1)C[C@@H]1CCCN1C(=O)[C@H](CC1CCCCC1)NC(=O)[C@H](C)NC` [Compound 9], the pEC50 is less than 7.60.

With `CN[C@@H](C)C(=O)N[C@H](C(=O)N1CCC[C@H]1CN(CCc1ccc(F)cc1)C(=O)c1ccc(-c2ccc(C(=O)N(CCc3ccc(F)cc3)C[C@@H]3CCCN3C(=O)[C@@H](NC(=O)[C@H](C)NC)C(C)(C)C)cc2)cc1)C(C)(C)C` [Compound 58], the pEC50 is 7.60 to 8.00.

With `CN[C@@H](C)C(=O)N[C@H](C(=O)N1CCC[C@H]1CN(CCc1ccccc1F)C(=O)CCCCCCCCC(=O)N(CCc1ccccc1F)C[C@@H]1CCCN1C(=O)[C@@H](NC(=O)[C@H](C)NC)C(C)(C)C)C(C)(C)C` [Compound 46], the pEC50 is more than 8.00.

The molecule `CN[C@@H](C)C(=O)N[C@H](C(=O)N1CCC[C@H]1CN(CCc1ccccc1)C(=O)CN(C)C(=O)c1ccc(-c2ccc(C(=O)N(C)CC(=O)N(CCc3ccccc3)C[C@@H]3CCCN3C(=O)[C@@H](NC(=O)[C@H](C)NC)C(C)(C)C)cc2)cc1)C(C)(C)C` [Compound 77] gave a pEC50 of 7.60 to 8.00.

With `CN[C@@H](C)C(=O)N[C@H](C(=O)N1CCC[C@H]1CN(CCc1ccccc1)C(=O)CNC(=O)c1cccc(C(=O)NCC(=O)N(CCc2ccccc2)C[C@@H]2CCCN2C(=O)[C@@H](NC(=O)[C@H](C)NC)C(C)(C)C)n1)C(C)(C)C` [Compound 88], the pEC50 was less than 7.60.

Regarding `CN[C@@H](C)C(=O)N[C@H](C(=O)N1CCC[C@H]1CN(CCc1ccccc1)C(=O)CCCC(=O)N(CCc1ccccc1)C[C@@H]1CCCN1C(=O)[C@@H](NC(=O)[C@H](C)NC)C(C)(C)C)C(C)(C)C` [Compound 3], the pEC50 is 7.60 to 8.00.

`CN[C@@H](C)C(=O)N[C@H](C(=O)N1CCC[C@H]1CN(CCc1ccc(F)cc1)S(=O)(=O)c1cccc(S(=O)(=O)N(CCc2ccc(F)cc2)C[C@@H]2CCCN2C(=O)[C@@H](NC(=O)[C@H](C)NC)C(C)(C)C)c1)C(C)(C)C` [Compound 57] showed a pEC50 of 7.60 to 8.00.

As for `CN[C@@H](C)C(=O)N[C@H](C(=O)N1CCC[C@H]1CN(CCc1ccccc1)S(=O)(=O)c1ccc2cc(S(=O)(=O)N(CCc3ccccc3)C[C@@H]3CCCN3C(=O)[C@@H](NC(=O)[C@H](C)NC)C(C)(C)C)ccc2c1)C(C)(C)C` [Compound 92], the pEC50 was more than 8.00.

Regarding `CN[C@@H](C)C(=O)N[C@H](C(=O)N1CCC[C@H]1CN(CCc1ccccc1)C(=O)[C@H](C)NC(=O)c1ccc(C(=O)N[C@@H](C)C(=O)N(CCc2ccccc2)C[C@@H]2CCCN2C(=O)[C@@H](NC(=O)[C@H](C)NC)C(C)(C)C)cc1)C(C)(C)C` [Compound 62], the negative-log EC50 (pEC50) was less than 7.60.

Molecule `CN[C@@H](C)C(=O)N[C@H](C(=O)N1CCC[C@H]1CN(CCc1ccccc1)C(=O)c1ccc(C(=O)N(CCc2ccccc2)C[C@@H]2CCCN2C(=O)[C@@H](NC(=O)[C@H](C)NC)C(C)(C)C)cc1)C(C)(C)C` [Compound 1] had a pEC50 of 7.60 to 8.00.

Turning to `CN[C@@H](C)C(=O)N[C@H](C(=O)N1CCC[C@H]1CN(CCc1ccccc1)C(=O)CCCCCCC(=O)N(CCc1ccccc1)C[C@@H]1CCCN1C(=O)[C@@H](NC(=O)[C@H](C)NC)C(C)(C)C)C(C)(C)C` [Compound 7], the pEC50 is 7.60 to 8.00.

`CN[C@@H](C)C(=O)N[C@H](C(=O)N1CCC[C@H]1CN(CCc1ccccc1)C(=O)c1ccc(-c2cccc(C(=O)N(CCc3ccccc3)C[C@@H]3CCCN3C(=O)[C@@H](NC(=O)[C@H](C)NC)C(C)(C)C)c2)cc1)C(C)(C)C` [Compound 64] showed a pEC50 of 7.60 to 8.00.
